Source: patent publication US20240245682A1, “ALPHA-V-BETA-8 INTEGRIN INHIBITORS AND USES THEREOF” (Pliant Therapeutics, Inc., priority 2022, published 2024)

Columns and labels:
Assay in all cases: AlphaScreen proximity-based integrin binding assay with TGF-b1 LAP
Conditions in all cases: values given as ranges
human integrin αVβ1 = human integrin αVβ1 (Homo sapiens, UniProt P05556+P06756)
Experimental: (§1) The biochemical potency of the disclosed compounds was determined using the AlphaScreen® (Perkin Elmer, Waltham, MA) proximity-based assay as described previously (Ullman E F et al., Luminescent oxygen channeling immunoassay: Measurement of particle binding kinetics by chemiluminescence. Proc. Natl. Acad. Sci. USA, Vol. 91, pp. 5426-5430, June 1994, herein incorporated by reference in its entirety). To gauge the potency of inhibitors of binding to each of human integrins αVβ1, αVβ6, and αVβ8, inhibitor compounds were independently incubated with one of αVβ1, αVβ6, or αVβ8, together with TGF-b1 LAP and biotinylated anti-LAP antibody plus acceptor and donor beads, following the manufacture's recommendations. The donor beads were coated with streptavidin. […] All incubations occurred at room temperatures in 50 mM Tris-HCl, pH 7.5, 0.1% BSA supplemented with 1 mM each CaCl2 and MgCl2.
(§2) The order of reagent addition was as follows:
(§3) 1. αVβ1, αVβ6, or αVβ8 integrin, test inhibitor compound, LAP, biotinylated anti-LAP antibody and acceptor beads were all added together.
(§4) 2. After 2 hours, donor beads were added. After another 30 minute incubation, samples were then read.
(§5) Integrin binding was evaluated by exciting donor beads at 680 nm, and measuring the fluorescent signal produced, between 520-620 nm, using a Biotek Instruments (Winooski, VT, USA) SynergyNeo2 multimode plate reader. Compound potency was assessed by determining inhibitor concentrations required to reduce fluorescent light output by 50%. Data analysis for IC50 determinations was carried out by nonlinear four parameter logistic regression analysis using Dotmatics ELN Software (Core Informatics Inc., Branford, Ct). […] Comp #in the Table and Examples below refers to the compound of the corresponding Example number as described in the Synthetic Examples.

human integrin αVβ6 = human integrin αVβ6 (Homo sapiens, UniProt P06756+P18564)
human integrin αVβ6, sequence (P06756 31-992 limits assumed): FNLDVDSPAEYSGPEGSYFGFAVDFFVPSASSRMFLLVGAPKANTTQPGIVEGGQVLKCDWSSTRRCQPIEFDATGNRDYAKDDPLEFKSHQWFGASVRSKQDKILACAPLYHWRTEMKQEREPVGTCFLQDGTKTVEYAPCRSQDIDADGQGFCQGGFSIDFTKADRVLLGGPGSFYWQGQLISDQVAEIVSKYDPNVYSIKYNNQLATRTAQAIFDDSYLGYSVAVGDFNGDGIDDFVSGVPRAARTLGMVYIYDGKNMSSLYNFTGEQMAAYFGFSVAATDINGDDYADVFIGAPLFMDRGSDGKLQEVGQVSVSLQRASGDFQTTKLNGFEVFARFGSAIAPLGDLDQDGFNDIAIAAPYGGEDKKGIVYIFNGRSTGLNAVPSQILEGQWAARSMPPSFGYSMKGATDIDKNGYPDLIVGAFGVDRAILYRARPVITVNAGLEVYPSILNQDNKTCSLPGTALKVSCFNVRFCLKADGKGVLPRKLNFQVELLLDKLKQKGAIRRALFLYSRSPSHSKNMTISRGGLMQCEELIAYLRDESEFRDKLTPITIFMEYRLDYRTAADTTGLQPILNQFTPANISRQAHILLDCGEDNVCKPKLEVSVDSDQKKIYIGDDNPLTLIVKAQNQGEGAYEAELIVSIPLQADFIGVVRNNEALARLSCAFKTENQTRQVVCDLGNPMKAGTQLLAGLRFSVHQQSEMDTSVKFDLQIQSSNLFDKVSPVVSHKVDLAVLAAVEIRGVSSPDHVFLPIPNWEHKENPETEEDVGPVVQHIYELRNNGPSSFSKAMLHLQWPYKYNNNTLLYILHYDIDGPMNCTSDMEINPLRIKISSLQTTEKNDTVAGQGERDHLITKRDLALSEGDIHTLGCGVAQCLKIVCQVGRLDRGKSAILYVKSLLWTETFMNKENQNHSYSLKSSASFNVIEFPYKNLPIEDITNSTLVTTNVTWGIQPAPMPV
human integrin αVβ6, sequence (P18564 22-707 limits assumed): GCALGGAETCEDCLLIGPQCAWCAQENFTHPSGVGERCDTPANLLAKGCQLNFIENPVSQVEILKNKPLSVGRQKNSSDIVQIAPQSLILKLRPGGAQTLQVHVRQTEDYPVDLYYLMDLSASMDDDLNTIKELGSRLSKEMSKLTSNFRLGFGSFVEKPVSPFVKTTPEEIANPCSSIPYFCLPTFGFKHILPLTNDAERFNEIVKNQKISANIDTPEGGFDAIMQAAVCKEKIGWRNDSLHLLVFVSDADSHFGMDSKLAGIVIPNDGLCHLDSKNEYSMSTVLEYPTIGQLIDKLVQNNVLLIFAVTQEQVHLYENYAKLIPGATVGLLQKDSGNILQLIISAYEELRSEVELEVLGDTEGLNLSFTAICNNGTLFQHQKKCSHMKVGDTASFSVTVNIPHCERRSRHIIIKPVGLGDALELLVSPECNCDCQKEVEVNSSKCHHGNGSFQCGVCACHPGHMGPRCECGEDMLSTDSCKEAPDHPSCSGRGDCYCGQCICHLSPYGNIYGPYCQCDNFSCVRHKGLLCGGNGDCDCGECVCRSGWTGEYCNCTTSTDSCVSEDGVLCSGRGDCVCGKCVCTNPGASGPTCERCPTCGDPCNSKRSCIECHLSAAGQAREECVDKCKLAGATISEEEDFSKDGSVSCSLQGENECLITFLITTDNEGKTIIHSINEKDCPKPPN
Experimental: as §1, §2, §3, §4, §5

human integrin αVβ8 = human integrin αVβ8 (Homo sapiens, UniProt P06756+P26012)
human integrin αVβ8, sequence (P06756 31-992 limits assumed): as the sequence (P06756 31-992 limits assumed) above
human integrin αVβ8, sequence (P26012 43-684 limits assumed): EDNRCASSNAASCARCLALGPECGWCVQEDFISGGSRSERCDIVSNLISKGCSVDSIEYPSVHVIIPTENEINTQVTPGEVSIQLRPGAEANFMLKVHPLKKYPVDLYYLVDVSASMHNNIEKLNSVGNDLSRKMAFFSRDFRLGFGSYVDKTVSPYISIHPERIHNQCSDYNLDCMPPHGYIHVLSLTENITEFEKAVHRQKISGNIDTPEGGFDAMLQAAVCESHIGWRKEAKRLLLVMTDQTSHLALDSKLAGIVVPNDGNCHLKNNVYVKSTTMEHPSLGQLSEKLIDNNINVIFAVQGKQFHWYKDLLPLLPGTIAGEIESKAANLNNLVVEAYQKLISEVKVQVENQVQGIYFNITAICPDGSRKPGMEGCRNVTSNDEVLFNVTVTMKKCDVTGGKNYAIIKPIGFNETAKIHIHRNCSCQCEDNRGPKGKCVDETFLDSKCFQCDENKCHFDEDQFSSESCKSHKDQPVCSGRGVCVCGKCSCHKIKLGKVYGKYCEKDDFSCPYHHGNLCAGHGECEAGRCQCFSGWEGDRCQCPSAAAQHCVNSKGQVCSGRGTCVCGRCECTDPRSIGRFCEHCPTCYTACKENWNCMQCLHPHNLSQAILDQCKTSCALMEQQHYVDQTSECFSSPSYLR
Experimental: as §1, §2, §3, §4, §5

human integrin αVβ1, sequence (P06756 31-992 limits assumed): as the sequence (P06756 31-992 limits assumed) above
human integrin αVβ1, sequence (P05556 21-728 limits assumed): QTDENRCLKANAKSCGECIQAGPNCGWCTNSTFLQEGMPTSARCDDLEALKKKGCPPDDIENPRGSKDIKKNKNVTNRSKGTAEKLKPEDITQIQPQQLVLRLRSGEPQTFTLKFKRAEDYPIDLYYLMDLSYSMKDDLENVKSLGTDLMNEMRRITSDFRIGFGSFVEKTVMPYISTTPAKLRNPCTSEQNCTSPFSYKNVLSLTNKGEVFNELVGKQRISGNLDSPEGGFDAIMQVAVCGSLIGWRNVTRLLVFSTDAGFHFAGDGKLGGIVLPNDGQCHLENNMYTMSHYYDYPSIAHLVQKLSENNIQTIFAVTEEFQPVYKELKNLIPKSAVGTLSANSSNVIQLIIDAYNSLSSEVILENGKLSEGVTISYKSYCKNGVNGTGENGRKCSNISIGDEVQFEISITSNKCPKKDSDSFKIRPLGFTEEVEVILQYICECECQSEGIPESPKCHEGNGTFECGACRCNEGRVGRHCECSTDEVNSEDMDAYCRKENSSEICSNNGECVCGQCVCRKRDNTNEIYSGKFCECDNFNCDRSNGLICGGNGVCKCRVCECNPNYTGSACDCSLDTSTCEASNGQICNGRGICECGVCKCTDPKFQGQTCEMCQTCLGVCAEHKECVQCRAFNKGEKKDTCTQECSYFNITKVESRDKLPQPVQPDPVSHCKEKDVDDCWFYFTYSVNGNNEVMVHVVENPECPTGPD

| Compound | IC50 (human integrin αVβ1) [nM] | IC50 (human integrin αVβ6) [nM] | IC50 (human integrin αVβ8) [nM] |
| --- | --- | --- | --- |
| O=C(O)[C@H](CCOCCCCc1ccc2c(n1)NCCC2)NC(=O)C1(c2ncccn2)CC1 [Compound 12, N-(1-(pyrimidin-2-yl)cyclopropane-1-carbonyl)-O-(4-(5,6,7,8-tetrahydro-1,8-naphthyridin-2-yl)butyl)-L-homoserine] | 50 to 150 | ≥ 500 | ≥ 500 |
| Cn1ncc(Cl)c1C1(C(=O)N[C@@H](CCOCCCCc2ccc3c(n2)NCCC3)C(=O)O)CC1 [Compound 51, N-(1-(4-chloro-1-methyl-1H-pyrazol-5-yl)cyclopropane-1-carbonyl)-O-(4-(5,6,7,8-tetrahydro-1,8-naphthyridin-2-yl)butyl)-L-homoserine] | < 50 | ≥ 500 | < 50 |
| Cc1ccccc1C1(C(=O)N[C@@H](CCOCCCCc2ccc3c(n2)NCCC3)C(=O)O)CC1 [Compound 17, O-(4-(5,6,7,8-tetrahydro-1,8-naphthyridin-2-yl)butyl)-N-(1-(o-tolyl)cyclopropane-1-carbonyl)-L-homoserine] | 50 to 150 | ≥ 500 | < 50 |
| Cc1nc(C)c(C2(C(=O)N[C@@H](CCOCCCCc3ccc4c(n3)NCCC4)C(=O)O)CC2)c(Cl)n1 [Compound 60, N-(1-(4-chloro-2,6-dimethylpyrimidin-5-yl)cyclopropane-1-carbonyl)-O-(4-(5,6,7,8-tetrahydro-1,8-naphthyridin-2-yl)butyl)-L-homoserine] | < 50 | ≥ 500 | < 50 |
| O=C(O)[C@H](CCOCCCCc1ccc2c(n1)NCCC2)NC(=O)C1(c2ccccc2F)CC1 [Compound 9, N-(1-(2-fluorophenyl)cyclopropane-1-carbonyl)-O-(4-(5,6,7,8-tetrahydro-1,8-naphthyridin-2-yl)butyl)-L-homoserine] | < 50 | ≥ 500 | < 50 |
| N#Cc1cccc(F)c1C1(C(=O)N[C@@H](CCOCCCCc2ccc3c(n2)NCCC3)C(=O)O)CC1 [Compound 37, N-(1-(2-cyano-6-fluorophenyl)cyclopropane-1-carbonyl)-O-(4-(5,6,7,8-tetrahydro-1,8-naphthyridin-2-yl)butyl)-L-homoserine] | < 50 | 250 to 500 | < 50 |

Second part, the compound after the results:

| IC50 (human integrin αVβ1) [nM] | IC50 (human integrin αVβ6) [nM] | IC50 (human integrin αVβ8) [nM] | Compound |
| --- | --- | --- | --- |
| 50 to 150 | > 500 | 50 to 150 | COc1cccc(=O)n1C1(C(=O)N[C@@H](CCOCCCCc2ccc3c(n2)NCCC3)C(=O)O)CC1 [Compound 92, N-(1-(6-methoxy-2-oxopyridin-1(2H)-yl)cyclopropane-1-carbonyl)-O-(4-(5,6,7,8-tetrahydro-1,8-naphthyridin-2-yl)butyl)-L-homoserine] |
| < 50 | > 500 | < 50 | O=C(O)[C@H](CCOCCCCc1ccc2c(n1)NCCC2)NC(=O)C1(C(F)(F)F)CCN(CC(F)(F)F)CC1 [Compound 96, O-(4-(5,6,7,8-tetrahydro-1,8-naphthyridin-2-yl)butyl)-N-(1-(2,2,2-trifluoroethyl)-4-(trifluoromethyl)piperidine-4-carbonyl)-L-homoserine] |
| < 50 | > 500 | < 50 | COc1cccc(C2(C(=O)N[C@@H](CCOCCCCc3ccc4c(n3)NCCC4)C(=O)O)CCOCC2)c1 [Compound 87, N-(4-(3-methoxyphenyl)tetrahydro-2H-pyran-4-carbonyl)-O-(4-(5,6,7,8-tetrahydro-1,8-naphthyridin-2-yl)butyl)-L-homoserine] |
| < 50 | ≥ 500 | < 50 | O=C(O)[C@H](CCOCCCCc1ccc2c(n1)NCCC2)NC(=O)C1(c2[nH]cnc2Cl)CC1 [Compound 79, N-(1-(4-chloro-1H-imidazol-5-yl)cyclopropane-1-carbonyl)-O-(4-(5,6,7,8-tetrahydro-1,8-naphthyridin-2-yl)butyl)-L-homoserine] |
